Assay: Cytotoxicity against mouse […] cells
Assay type: functional, cell-based

SMILES | IC50
COC(=O)[C@]1(C)[C@@H]2CC[C@]3(C)/C(=C(/C)C=O)C(=O)C[C@@H]3[C@@]2(C)CC[C@H]1OC(C)=O | > 3.3 µg/mL
COC(=O)[C@]1(C)[C@@H]2CC[C@]3(C)\C(=C(C)/C=C/C=C(C)/C=C/C=O)C(=O)C[C@@H]3[C@@]2(C)CC[C@H]1OC(C)=O | > 3.3 µg/mL
COC(=O)[C@]1(C)[C@@H]2CC[C@]3(C)\C(=C(C)/C=C/C=C(\C)C=O)C(=O)C[C@@H]3[C@@]2(C)CC[C@H]1OC(C)=O | > 3.3 µg/mL
COC(=O)[C@]1(C)[C@@H]2CC[C@]3(C)\C(=C(C)/C=C/C=C(\C)C(/C=C/C(C)(C)O)OC)C(=O)C[C@@H]3[C@@]2(C)CC[C@H]1OC(C)=O (some centres not stated) [GLOBOSTELLATIC ACD B METHYL ESTER] | > 3.3 µg/mL
COC(=O)[C@]1(C)[C@@H]2CC[C@]3(C)\C(=C(C)/C=C/C=C(C)/C=C/C(OC)C(C)(C)O)C(=O)C[C@@H]3[C@@]2(C)CC[C@H]1OC(C)=O (some centres not stated) [GLOBOSTELLATIC ACD C METHYL ESTER] | > 3.3 µg/mL
COC(=O)/C(C)=C1\C(=O)C[C@@H]2[C@@]3(C)CC[C@@H](OC(C)=O)[C@](C)(C(=O)OC)[C@@H]3CC[C@]12C [JASPIFEROIC ACID A DIMETHYL ESTER] | > 3.3 µg/mL
COC(=O)/C=C/C(C)=C1/C(=O)C[C@@H]2[C@@]3(C)CC[C@@H](OC(C)=O)[C@](C)(C(=O)OC)[C@@H]3CC[C@]12C [JASPIFEROIC ACID B DIMETHYL ESTER] | > 3.3 µg/mL

Reference: ChEMBL document CHEMBL1142641, “New isomalabaricane derivatives from a new species of Jaspis sponge collected at the Vanuatu islands” (J Nat Prod, 2000)
